Measurements from patent publication US20200017496A1 (priority 2017, published 2020).
≈ marks a conversion by molar mass, not a printed value.

Experiments:
[1] = Hydrolysis kinetics in buffers at 37° C., 4 μg/ml (LC-MS, Method 8); assay type: physicochemical
Procedure: (§1) Method 8: Hydrolysis Kinetics in Buffers or Plasma Samples at 37° C., 4 μg/ml (Table 9)
(§2) Test compounds were prepared in DMSO at 0.8 mg/ml (relative to the acid AF1). To obtain a concentration of 4 μg/ml, one microliter of test compounds or AF1 was dissolved in 199 μl of buffer or blank plasma. For test compounds, plasma samples and/or buffer samples were kept at 37° C. during 2 h, and 20 μL of mixture were collected at 0 minutes (before heating to 37° C.), 5 minutes, 10 minutes, 20 minutes, 30 minutes, 45 minutes, 60 minutes and 120 minutes. For AF1, 20 μl of plasma samples and/or buffer samples were collected at 0 minutes. All plasma samples were protein precipitated using 3-25 fold volume of acetonitrile, shaken and centrifuged for 20 minutes at 15 000×g, diluted with a varying volume of deionized water. All buffer samples were diluted with a varying volume of deionized water/acetonitrile. The formation of AF1 from test compounds was quantified using LC-MS/MS.

[2] = Hydrolysis kinetics in buffers at room temperature by 19F-NMR, 1 mg/ml (Method 9); assay type: physicochemical
Procedure: Method 9: Hydrolysis Kinetics in Buffers at Room Temperature by ^19F-NMR, 1 mg/ml (Table 9)
Samples were prepared by solubilizing the ester compound (1 mg) in 900 μL of D2O and 100 μL of adequate buffer (Citrate 100 mM pH 5, Phosphate 100 mM pH 6 and Phosphate 100 mM pH 7.4). After a short sonication to fasten solubilization, the hydrolysis curve of the esters was generated by measuring and comparing the ^19F-NMR signal integrations of both species (ester compound disappearing and the acid form AF1 appearing). T10 and T50, times for respectively 10% and 50% of ester hydrolysis, were determined by interpolation of the hydrolysis curves.

[3] = Aqueous solubility by visual inspection (Method 12); details: for solubility: water, thermodynamic from solid
[4] = in vitro; assay type: in vitro ADME; details: plasma
Procedure: as §1, §2

| SMILES | Hydrolysis at 4 μg/ml at 37° C. (LC-MS) T50 (50% degradation time) ([1]; Citrate 10 mM pH 5.0) | Hydrolysis at 4 μg/ml at 37° C. (LC-MS) T50 (50% degradation time) ([1]; Phosphate 10 mM pH 6.0) | Hydrolysis at 4 μg/ml at 37° C. (LC-MS) T50 (50% degradation time) ([1]; Phosphate 10 mM pH 7.4) | Hydrolysis at 1 mg/ml at room Temperature (NMR) T10 (10% degradation time) ([2]; Citrate 10 mM pH 5.0) | Hydrolysis at 1 mg/ml at room Temperature (NMR) T50 (50% degradation time) ([2]; Citrate 10 mM pH 5.0) | solubility [3] | Aqueous Solubility at room temperature in H2O ([3]; room temperature, H2O, visual inspection) | half-life at 4 µg/ml ([4]; dog) | half-life at 4 µg/ml ([4]; human) | half-life at 4 µg/ml ([4]; mouse) | half-life at 4 µg/ml ([4]; rat) | Hydrolysis at 1 mg/ml at room Temperature (NMR) T10 (10% degradation time) ([2]; Phosphate 10 mM pH 6.0) | Hydrolysis at 1 mg/ml at room Temperature (NMR) T50 (50% degradation time) ([2]; Phosphate 10 mM pH 6.0) | Hydrolysis at 1 mg/ml at room Temperature (NMR) T10 (10% degradation time) ([2]; Phosphate 10 mM pH 7.4) | Hydrolysis at 1 mg/ml at room Temperature (NMR) T50 (50% degradation time) ([2]; Phosphate 10 mM pH 7.4) |
| --- | --- | --- | --- | --- | --- | --- | --- | --- | --- | --- | --- | --- | --- | --- | --- |
| CCOC(=O)C(F)(F)ON1C(=O)N2C[C@H]1CC[C@H]2C(N)=O [AF1-Et] | <1 min | <1 min | <1 min | 9 min | 1 h | > 1000 µg/mL |  |  |  |  |  |  |  |  |  |
| NC(=O)[C@@H]1CC[C@@H]2CN1C(=O)N2OC(F)(F)C(=O)OC1C2CC3CC(C2)CC1C3 (stereo partly drawn) [Example 3, 2-adamantyl 2-[[(2S,5R)-2-carbamoyl-7-oxo-1,6-diazabicyclo[3.2.1]octan-6-yl]oxy]-2,2-difluoro-acetate] |  |  |  |  |  |  | Low solubility |  |  |  |  |  |  |  |  |
| COCC(C)(C)OC(=O)C(F)(F)ON1C(=O)N2C[C@H]1CC[C@H]2C(N)=O [Example 7, (2-methoxy-1,1-dimethyl-ethyl) 2-[[(2S,5R)-2-carbamoyl-7-oxo-1,6-diazabicyclo[3.2.1]octan-6-yl]oxy]-2,2-difluoro-acetate] | 109 min |  | 23 min | 210 min | 27 h | 6000 µg/mL (≈ 16.4 mM) |  | 4 min | 7 min | < 1 min | < 1 min | 120 min | 20 h | 37 min | 3.2 h |
| CC1(OC(=O)C(F)(F)ON2C(=O)N3C[C@H]2CC[C@H]3C(N)=O)CCOCC1 [Example 8, (4-methyltetrahydropyran-4-yl) 2-[[(2S,5R)-2-carbamoyl-7-oxo-1,6-diazabicyclo[3.2.1]octan-6-yl]oxy]-2,2-difluoro-acetate] | >120 min |  | 39 min | 402 min | 43 h | 1000 µg/mL (≈ 2.65 mM) |  | 8 min | 11 min | < 1 min | < 1 min | 162 min | 21 h | 40 min | 4.5 h |
| COCCOCC(C)(C)OC(=O)C(F)(F)ON1C(=O)N2C[C@H]1CC[C@H]2C(N)=O [Example 9] |  |  |  | 192 min | 20 h | 6900 µg/mL (≈ 16.9 mM) |  |  |  |  |  | 138 min | 17 h | 21 min | 2.6 h |
| COCC(C)(COC)OC(=O)C(F)(F)ON1C(=O)N2C[C@H]1CC[C@H]2C(N)=O [Example 10, [2-methoxy-1-(methoxymethyl)-1-methyl-ethyl]2-[[(2S,5R)-2-carbamoyl-7-oxo-1,6-diazabicyclo[3.2.1]octan-6-yl]oxy]-2,2-difluoro-acetate] |  |  |  | 210 min | 32 h | 4500 µg/mL (≈ 11.4 mM) |  |  |  |  |  | 90 min | 16 h | 12 min | 1 h |
| COCC1(OC(=O)C(F)(F)ON2C(=O)N3C[C@H]2CC[C@H]3C(N)=O)CCOCC1 [Example 11, [4-(methoxymethyl)tetrahydropyran-4-yl]2-[[(2S,5R)-2-carbamoyl-7-oxo-1,6-diazabicyclo[3.2.1]octan-6-yl]oxy]-2,2-difluoro-acetate] |  |  |  | 372 min | >41 h | 1300 µg/mL (≈ 3.19 mM) |  |  |  |  |  | 120 min | 16 h | 15 min | 1.3 h |
| NC(=O)[C@@H]1CC[C@@H]2CN1C(=O)N2OC(F)(F)C(=O)OC1CCOCC1 [Example 12, tetrahydropyran-4-yl 2-[[(2S,5R)-2-carbamoyl-7-oxo-1,6-diazabicyclo[3.2.1]octan-6-yl]oxy]-2,2-difluoro-acetate] | <1 min | <1 min | <1 min | 15 min | 1.3 h | 500 to 1000 µg/mL (≈ 1.38 to 2.75 mM) |  |  |  |  |  |  |  |  |  |
| COCC(COC)OC(=O)C(F)(F)ON1C(=O)N2C[C@H]1CC[C@H]2C(N)=O [Example 13, [2-methoxy-1-(methoxymethyl)ethyl]2-[[(2S,5R)-2-carbamoyl-7-oxo-1,6-diazabicyclo[3.2.1]octan-6-yl]oxy]-2,2-difluoro-acetate] | <1 min | <1 min | <1 min | 8 min | 0.933 h | > 1000 µg/mL |  |  |  |  |  |  |  |  |  |
| COCCCC(C)(C)OC(=O)C(F)(F)ON1C(=O)N2C[C@H]1CC[C@H]2C(N)=O [Example 14, (4-methoxy-1,1-dimethyl-butyl) 2-[[(2S,5R)-2-carbamoyl-7-oxo-1,6-diazabicyclo[3.2.1]octan-6-yl]oxy]-2,2-difluoro-acetate] | <5 min | <5 min | <5 min | 5 min | 0.45 h | 5100 µg/mL (≈ 13 mM) |  |  |  |  |  | <25 min | <2 h | 7 min | 0.567 h |
| CCCN(CCC)[C@H]1CC[C@H](OC(=O)C(F)(F)ON2C(=O)N3C[C@H]2CC[C@H]3C(N)=O)CC1 [Example 15, [4-(dipropylamino)cyclohexyl]2-[[(2S,5R)-2-carbamoyl-7-oxo-1,6-diazabicyclo[3.2.1]octan-6-yl]oxy]-2,2-difluoro-acetate] | <1 min | <1 min | <1 min | 7 min | 0.567 h | > 1000 µg/mL |  |  |  |  |  |  |  |  |  |
